Reference: US9655865B2, “Therapeutic treatment for metabolic syndrome, type 2 diabetes, obesity, or prediabetes” (VeroScience, LLC, priority 2002, dated 2017)

Columns and labels:
Format in all cases: in vivo
[1] = system: obese, diabetic female ob/ob mice; test: GBR 12909 and clonidine, alone and combined, 14 days in ob/ob mice with mild diabetes (Example 2); settings: GBR 12909 about 20 mg/kg, clonidine about 0.1 mg/kg, once daily 14 days, controls 202+/−41
Experimental: GBR 12909 is a specific dopamine reuptake inhibitor. Its use can increase the dopaminergic to noradrenergic neuronal activity in the central nervous system. However, by combining GBR 12909 with clonidine, a noradrenergic alpha 2 receptor agonist with preferential affinity for presynaptic alpha 2 sites, it is possible to further increase the dopamine to noradrenaline neuronal activity ratio in the central nervous system. A study was conducted to determine the interactive effects of GBR 12909 and clonidine on blood glucose level in ob/ob mice.
Obese, diabetic female ob/ob mice (body weight of approximately 28 g) with mild diabetes were maintained on 14 hour daily photoperiods, housed one per cage and allowed to feed ad libitum. Different groups of these animals were randomized to once daily treatment with either a specific dopamine reuptake inhibitor, GBR 12909 at an approximate dose of 20 mg/kg body weight (n=4), or clonidine at an approximate dose of 0.1 mg/kg (n=5), these same dosages of GBR 12909 plus clonidine (n=3), or vehicle (control group; n=5-7) for a 14 day period. On the fifteenth day of the study and approximately 24 hours after the final treatment animals were sacrificed and blood samples were obtained for the analyses of blood glucose levels.

[2] = system: Female mice fed a high fat diet for 20 weeks; test: GBR 12909 and FA, alone and combined, 14 days in high fat diet mice (Example 9); settings: for body weight: 2 weeks treatment, normal weight for age matched controls=28 grams, FIG. 15; for plasma insulin levels: compared to lean controls, FIG. 12
Experimental: Female mice at 4 weeks of age were fed a high fat diet for 20 weeks to induce diabetes and insulin resistance and continued on such diet while treated for 14 days with either GBR 12909 (10 mg/kg), FA (15 mg/kg), GBR 12909 (10 mg/kg) plus FA (15 mg/kg), or vehicle and sacrificed after 14 days of treatment for the analyses of body fat, blood glucose, plasma insulin, and plasma nitric oxide levels. The composite of body fat store level, blood glucose and plasma insulin was reduced the greatest in the GBR/FA group and by a magnitude more than additive of the individual GBR and FA groups combined. Only the GBR/FA group normalized plasma insulin levels. […] This effect was not observed with either GBR or FA treatments alone.

[3] = system: male mice fed a high fat diet; test: GBR versus bupropion in high fat diet mice (Example 11)
Experimental: The effect of increasing central dopamine neuronal activity versus increasing central dopamine plus norepinephrine neuronal activity on body fat, blood glucose, plasma insulin, and insulin sensitivity was studied in male mice fed a high fat diet from 4 weeks of age until 24 weeks of age. These mice were maintained on this high fat diet while treated with either GBR (20 mg/kg) (a selective dopamine reuptake inhibitor) or bupropion (20 mg/kg) (a dopamine and norepinpehrine reuptake inhibitor) at doses that approximate their 50% maximal effective dose for these functions in vivo in rodents.

[4] = system: obese, diabetic mice (ob/ob strain); test: GBR 12909 once daily for 14 days in obese, diabetic ob/ob mice (Example 1); settings: 30 mg/kg once daily 14 days
Experimental: GBR 12909 (1-(2-[bis(4-Fluorophenyl)methoxy]ethyl)-4-(3-phenylpropyl)piperazine dihydrochloride) is a specific dopamine reuptake inhibitor. Systemic administration of GBR 12909 can increase the dopaminergic to noradrenergic neuronal activity in the central nervous system. A study was conducted to determine the effects of GBR 12909 upon blood glucose and plasma free fatty acid levels in obese, diabetic mice (ob/ob strain). The ob/ob mouse is hyperphagic, obese, insulin resistant, diabetic and dyslipidemic due to the absence of functional leptin as a result of a mutation in this gene. Starvation or calorie restriction of these mice leads to increases in plasma free fatty acid levels that can function over the long term to worsen diabetes.
Different groups of obese, diabetic female (ob/ob) mice (body weight of approximately 33 g) maintained on 12 hour daily photoperiods, housed one per cage and allowed to feed ad libitum were randomized to once daily treatment with either a specific dopamine reuptake inhibitor, GBR 12909 at a dose of 30 mg/kg body weight (n=5-7) or vehicle (control group; n=5-7) for a 14 day period. On the fifteenth day of the study and approximately 24 hours after the final treatment animals were sacrificed and blood samples were obtained for the analyses of blood glucose and plasma free fatty acid and triglyceride levels.

[5] = system: high fat fed, hypertensive SHR rats; test: Quinelorane and fusaric acid, alone and combined, in high fat fed hypertensive SHR rats (Example 5); settings: SHR rats on high fat diet
Experimental: Male SHR rats were maintained on 14 hour daily photoperiods and fed a high fat diet (60% of energy from fat; 5.24 kcal/gram weight) for 3 weeks and then divided into different groups and treated with either quinelorane (Q; a dopamine D2/D3 mixed receptor agonist) (0.075 mg/kg), fusaric acid (FA; a dopamine beta hydroxylase inhibitor) (12.5 mg/kg), quinelorane (0.075 mg/kg) plus FA (Q/FA) (12.5 mg/kg), or vehicle at 13 hours after light onset for 17 days. The doses of Q and FA were set at less than half maximal to effect central dopamine receptor binding functions and dopamine beta hydroxylase activity, respectively. […] Blood pressure measurements were taken at 14 days of treatment and animals were sacrificed at 18 days of treatment for analyses of body fat and humoral factors and metabolites. […] Respecting blood glucose, although both Q and FA reduced glucose level relative to vehicle, only the Q/FA regimen normalized blood glucose in these animals relative to vehicle (FIG. 6).

[6] = system: Female obese diabetic mice (ob/ob strain); test: Bupropion and FA, alone and combined, 14 days in ob/ob mice (Example 7); settings: bupropion 40 mg/kg, FA 10 mg/kg, FIG. 9
Experimental: Female obese diabetic mice (ob/ob strain) at 6 weeks of age were fed standard rodent chow and different groups of animals (n=5-7/group) were treated with bupropion (40 mg/kg), FA (10 mg/kg), bupropion (40 mg/kg) plus FA (10 mg/kg), or vehicle for 14 days and then sacrificed for the analyses of blood glucose and body fat store level. […] Moreover, these reductions were more than additive in magnitude relative to the effects of the individual compounds combined.

[7] = system: obese, diabetic female ob/ob mice; test: Fusaric acid and SKF 38393, alone and combined, 14 days in ob/ob mice (Example 4); settings: fusaric acid 15 mg/kg, SKF 38393 10 mg/kg
Experimental: Fusaric acid is a dopamine beta hydroxylase inhibitor that reduces noradrenaline synthesis in noradrenergic neurons. It is not present in dopaminergic neurons and thus exerts no such effect there. SKF38393 is a post-synaptic dopamine D1 receptor agonist with no marked influence on noradrenergic neurons. A study was conducted to determine the interactive effects of fusaric acid plus SKF 38393 on body fat store levels, and blood glucose and plasma triglyceride levels in ob/ob mice. The ob/ob mouse is hyperphagic, obese, insulin resistant, diabetic and dyslipidemic due to the absence of functional leptin as a result of a mutation in this gene.
Obese, diabetic female ob/ob mice (body weight of approximately 33 g) maintained on 14 hour daily photoperiods, housed one per cage and allowed to feed ad libitum were randomized to once daily treatment with either fusaric acid (15 mg/kg; n=6-8), SKF 38393 (10 mg/kg; n=6-8), both fusaric acid (15 mg/kg) and SKF 38393 (10 mg/kg) (n=6-8), or vehicle (control group; n=6-8) for a 14 day period. On the fifteenth day of the study and approximately 24 hours after the final treatment animals were sacrificed and blood samples were obtained for the analyses of blood glucose, plasma free fatty acid and triglyceride levels. Relative to controls, fusaric acid raised blood glucose from 380+/−30 mg/dl to 430+/−30 mg/dl and SKF 38393 reduced blood glucose to 290+/−55 mg/dl. However, fusaric acid plus SKF 38393 reduced blood glucose to 180+/−20 mg/dl. […] Neither fusaric acid nor SKF 38393 had any effect on retroperitoneal fat pad weight (735+/−43 mg and 735+/−50 mg, respectively versus control value of 727+/−25 mg) however, the combination of fusaric acid plus SKF 38393 reduced retroperitoneal fat pad weight to 680+/−25 mg.

[8] = system: mice fed a high fat diet for 20 weeks; test: Bromocriptine and GBR 12909, alone and combined, in high fat diet mice (Example 12); settings: bromocriptine 5 mg/kg, GBR 12909 5 mg/kg
Experimental: The effects of adding GBR (a selective dopamine reuptake inhibitor) to bromocriptine (a dopamine D2 receptor agonist that can reduce central norepinephrine neuronal activity) in an effort to circumvent the impact of the D2 receptor agonist effect to reduce endogenous dopamine and to therefore improve metabolic disorders was examined in mice fed a high fat diet for 20 weeks and then treated with either vehicle, bromocriptine (BC) (5 mg/kg), GBR 12909 (5 mg/kg) or bromocriptine (5 mg/kg) plus GBR 12909 (5 mg/kg). […] Again, increasing central dopaminergic neuronal activity and decreasing central norepinephrine neuronal activity simultaneously produces synergistic reductions in metabolic disorders. […] BC alone had no effect on plasma insulin level (FIG. 21).

[9] = system: Female ob/ob obese diabetic mice; test: Bromocriptine and GBR 12909, alone and combined, 14 days in ob/ob mice (Example 8); settings: bromocriptine 10 mg/kg, GBR 12909 20 mg/kg, daily 14 days, FIG. 10
Experimental: The effects of adding GBR (a selective dopamine reuptake inhibitor) to bromocriptine (a dopamine D2 receptor agonist that can reduce central norepinephrine neuronal activity) in an effort to circumvent the impact of the D2 receptor agonist effect to reduce endogenous dopamine and to therefore improve metabolic disorders was examined in ob/ob mice treated with either vehicle, bromocriptine (BC) (10 mg/kg), GBR 12909 (20 mg/kg) or bromocriptine (10 mg/kg) plus GBR 12909 (20 mg/kg). Female ob/ob obese diabetic mice were fed standard chow and different groups of animals (n=5-7 group) were treated daily for 14 days with bromocriptine (to reduce norepinephrine neuronal activity) (10 mg/kg), GBR 12909 (to increase dopaminergic neuronal activity) (20 mg/kg) or with bromocriptine (10 mg/kg) plus GBR 12909 (20 mg/kg), or vehicle. […] BC had no effect on blood glucose level. The BC/GBR effect on blood glucose level was more than additive of the individual effects of BC and GBR combined (FIG. 10)

[10] = system: Female C57 Black mice fed a high simple sugar/moderate fat diet (western diet); test: GBR 12909, FA, clonidine and combinations in C57 Black mice on western diet, body fat (Example 6); settings: GBR 25 mg/kg, FA 10 mg/kg, clonidine 0.075 mg/kg, 14 days, FIG. 7
[11] = GBR 12909 10 mg/kg, FA 15 mg/kg, 14 days

In the case of `Cl.Cl.Fc1ccc(C(OCCN2CCN(CCCc3ccccc3)CC2)c2ccc(F)cc2)cc1` [GBR 12909, 1-(2-[bis(4-Fluorophenyl)methoxy]ethyl)-4-(3-phenylpropyl)piperazine dihydrochloride], the blood glucose [1] is reported as 221 ± 31 mg/dL, the body weight [2] is reported as “not observed” and the blood glucose ([2]; GBR 12909 10 mg/kg, FA 15 mg/kg, 14 days, FIG. 11) is reported as “no significant effect”. The plasma insulin levels [2, 11] was “significantly higher”, the “body fat (intraabdominal fat pad)” value ([3]; 20 mg/kg, compared to vehicle and Bupropion, FIG. 17) was “significantly reduced” and the HOMA-IR values ([3]; 20 mg/kg, compared to vehicle and Bupropion, FIG. 19) was “significantly reduced”. The blood glucose ([3]; 20 mg/kg, relative to vehicle and Bupropion, FIG. 18) was “significantly reduced”, the “reduction of plasma insulin compared with bupropion” value ([3]; equal dose 20 mg/kg) was “much more effective” and the “reduction of plasma triglyceride level relative to controls” value [4] was “approximately 32%”. For the same compound, the blood glucose ([4]; about 24 h after final treatment, controls 455+/−50) was 145 ± 25 mg/dL, the final body weight ([4]; controls 42+/−2) was 28 ± 0.5 g and the “plasma free fatty acid levels” value ([4]; controls 780+/−40) was 450 ± 20 µM.
With `CCCCc1ccc(C(=O)O)nc1` [fusaric acid, 5-butyl-2-pyridinecarboxylic acid] the “change from baseline body weight (weight loss)” value ([5]; Q 0.075 mg/kg, FA 12.5 mg/kg, 17 days, FIGS. 1 and 2) was “modest if any effects”, the blood glucose ([5]; relative to vehicle, FIG. 6) was “reduced” and the “plasma C-reactive protein (CRP) levels” value ([5]; relative to vehicle, sacrifice at 18 days) was “no significant effect”. The body weight [2] was “not observed”, the plasma insulin levels [2, 11] was “significantly higher” and the blood glucose [6] was “no significant effect”. The “retroperitoneal fat pad weight” value ([7]; 14 days, control 727+/−25) was 735 ± 43 mg, the plasma triglyceride level ([7]; 14 days, controls 155+/−15) was 170 ± 27 mg/dL and the blood glucose ([7]; once daily 14 days, controls 380+/−30) was 430 ± 30 mg/dL.
With `CC(C)C[C@H]1C(=O)N2CCC[C@H]2[C@]2(O)O[C@](NC(=O)[C@@H]3C=C4c5cccc6[nH]c(Br)c(c56)C[C@H]4N(C)C3)(C(C)C)C(=O)N12` [bromocriptine] the plasma insulin level ([8]; FIG. 21) was “no effect”, the “HOMA-IR (insulin resistance)” value ([8]; FIG. 22) was “no significant effect” and the blood glucose level [9] was “no effect”.
For `Clc1cccc(Cl)c1NC1=NCCN1` [clonidine, 2-(2,6-dichloroanilino)-2-imidazoline], the blood glucose [1] was 250 ± 35 mg/dL and the “body fat store level (intraabdominal fat pad)” value [10] was “no effect”.
